Laboratory results as given in patent publication EP4299736A2, “HYDROLASES AND USES THEREOF” (Vilnius University, priority 2022, dated 2024).

Key:
Type in all cases: biochemical
[1] = biological target: hydrolase Seq ID No: 1 (metagenomic, wild-type hydrolase) (uncultured bacterium, UniProt A0ACD6BAS6); experiment: Spectrophotometric assay of hydrolytic activity (kinetic parameters); conditions: potassium phosphate buffer, pH 7.5, 22 °C
Experimental: (§1) For the spectrophotometric assay, the reaction was started by adding an appropriate amount of protein to potassium phosphate buffer, pH 7.5 supplemented with 0.3, 0.15, 0.1, 0.075, 0.05, 0.0375, 0.025, 0.0125 mM N^4-benzoyl-2'-deoxycytidine, or 1, 0.8, 0.5, 0.4, 0.25, 0.2, 0.1, 0.05 mM 2'-deoxycytidine. Then, decreases in absorbance at either 310 for N^4-benzoyl-2'-deoxycytidine or 290 nm for 2'-deoxycytidine were recorded at 22 °C. Kinetic parameters (Table x) were calculated using Imfit-py 1.0.2 software fitting the experimental data to a simple Michaelis-Menten kinetics scheme. Table 5. Kinetic parameters of hydrolases. Substrate: BzdC - N4-benzoyl-2'-deoxycytidine; dC-2'-deoxycytidine.

[2] = tested on: hydrolase Seq ID No: 3 (metagenomic hydrolase); experiment: as above; conditions: potassium phosphate buffer, pH 7.5, 22 °C
Experimental: as §1

[3] = biological target: hydrolase variant Seq ID No: 15 (site-directed mutant) (uncultured bacterium, UniProt A0ACD6BAS6); experiment: as above; conditions: potassium phosphate buffer, pH 7.5, 22 °C, 310 nm (BzdC) or 290 nm (dC)
Description: (§2) Mutations in the hydrolase's genes were introduced using methodology based on "Phusion™ Site-Directed Mutagenesis Kit" (Thermo Fisher Scientific). For specific mutagenesis, primer pairs meant to amplify the whole plasmid with the target protein gene, where one primer has miss-matched base pairs in the middle, were created (Fw/Rv): […]/[…] (SEQ ID NO:10); [formula] [formula] […]/[…] (SEQ ID NO:13); [formula] [formula] […]/[…] and […]/[…] (SEQ ID NO: 16, SEQ ID NO: 17, SEQ ID NO: 18); [formula] […]/[…] (SEQ ID NO: 21); [formula] […]/[…] (SEQ ID NO: 23); […]/[…] (SEQ ID NO: 24).
as §1

[4] = biological target: hydrolase variant Seq ID No:13 (site-directed mutant) (uncultured bacterium, UniProt A0ACD6BAS6, form not given/G85I); experiment: as above; conditions: potassium phosphate buffer, pH 7.5, 22 °C, 310 nm (BzdC) or 290 nm (dC)
Description: as §2, §1

[5] = tested on: hydrolases SEQ ID NO: 1-41; experiment: Analysis of substrate spectrum of hydrolases (TLC, HPLC-MS, GC-MS); note: key: '+'- active; ' –' inactive towards derivative
Experimental: A hydrolytic activity of enzymes was analysed by thin-layer chromatography (TLC), high-performance liquid chromatography and a mass spectrometry (HPLC-MS) and Gas chromatography and a mass spectrometry (GC-MS) methods. Nucleosides, as substrates and hydrolysis reaction products, were tested by thin-layer chromatography (TLC) method and by a high-performance liquid chromatography - mass spectroscopy (HPLC-MS) method. Other reaction products were detected by Gas chromatography-Mass spectrometry (GC-MS) system. […] The conditions of the reactions are given below.
Hydrolysis products test by thin-layer chromatography (TLC) method. A hydrolytic activity was assayed in reaction mixture containing 45 mM potassium phosphate buffer, pH 7.5, 1 µl enzyme (0.1-4.6 µg/reaction) and 4 mM substrate. The total reaction mix volume was 20 µl. Reaction mixture were incubated at 30 °C temperature up to 3 h and at RT overnight. Thin-layer chromatography (TLC) was conducted on the Merck silica gel 60 F254 plates, using the chloroform and methanol (5:1) mixture of solvents.
High-performance liquid chromatography/mass spectrometry (HPLC-MS) analysis of hydrolysis reaction products. […] Mass scans were measured from m/z 10 up to m/z 500, at 350 °C interface temperature, 250 °C DL temperature, ±4,500 V interface voltage, neutral DL/Qarray, using N 2 as nebulizing and drying gas. Mass spectrometry data was acquired in both the positive and negative ionization mode. The data was analysed using the LabSolutions LCMS software. For HPLC-MS analysis, the reaction mixture consisted of 45 mM potassium phosphate buffer (pH 7.5), 2 mM substrate (from 50-100 mM stock in DMSO), and protein (-0.5-1 mg/ ml). Reaction mixture was incubated at 30 °C temperature up to 3 h and at RT overnight.
Gas chromatography-Mass spectrometry (GC-MS) analysis of hydrolysis reaction products. GC-MS analyses were performed with a Shimadzu GCMS-QP2010 Ultra Plus (Kyoto, Japan). […] Temperature program -50°C (1 min), 50°C →250 °C (25 °C/min), total run time - 15 min. The temperatures of injector, interface and ion source were 250°C.
For GC-MS analysis, the reaction mixture consisted of 45 mM potassium phosphate buffer (pH 7.5), 2.4 mM substrate (from 50-100 mM stock in DMSO), and protein (-0.5-1 mg/ ml). The total reaction mix volume was 1000 µl. The hydrolysis reaction products were extracted with ethyl acetate (3x 400 µl).

[6] = 310 nm (BzdC) or 290 nm (dC), unit not given
[7] = absorbance decrease at 310 nm (BzdC) or 290 nm (dC), Michaelis-Menten fit

Chain of hydrolase Seq ID No: 1 (metagenomic, wild-type hydrolase) (A0ACD6BAS6 entry or part of it): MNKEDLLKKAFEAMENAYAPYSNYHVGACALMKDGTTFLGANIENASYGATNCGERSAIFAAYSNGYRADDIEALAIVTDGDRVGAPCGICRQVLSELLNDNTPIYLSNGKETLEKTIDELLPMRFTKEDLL
Chain of hydrolase variant Seq ID No:13 (site-directed mutant) (A0ACD6BAS6 entry or part of it G85I, form open): as the sequence (A0ACD6BAS6 entry or part of it) above
Chain of hydrolase variant Seq ID No: 15 (site-directed mutant) (A0ACD6BAS6 entry or part of it, change not shown): as the sequence (A0ACD6BAS6 entry or part of it) above

Row | SMILES | Hydrolysis of S^4-alkyl uridine derivatives ([5]; enzyme SEQ ID No:1) | Hydrolysis of S^4-alkyl uridine derivatives ([5]; enzyme SEQ ID No:2) | Hydrolysis of S^4-alkyl uridine derivatives ([5]; enzyme SEQ ID No:3) | Hydrolysis of S^4-alkyl uridine derivatives ([5]; enzyme SEQ ID No:4) | Hydrolysis of S^4-alkyl uridine derivatives ([5]; enzyme SEQ ID No:6) | Hydrolysis of S^4-alkyl uridine derivatives ([5]; enzyme SEQ ID No:9) | Hydrolysis of S^4-alkyl uridine derivatives ([5]; enzyme SEQ ID No:25) | Hydrolysis of S^4-alkyl uridine derivatives ([5]; enzyme SEQ ID No:27) | Hydrolysis of S^4-alkyl uridine derivatives ([5]; enzyme SEQ ID No:28) | Hydrolysis of S^4-alkyl uridine derivatives ([5]; enzyme SEQ ID No:30) | Hydrolysis of S^4-alkyl uridine derivatives ([5]; enzyme SEQ ID No:32) | Hydrolysis of S^4-alkyl uridine derivatives ([5]; enzyme SEQ ID No:34) | Hydrolysis of S^4-alkyl uridine derivatives ([5]; enzyme SEQ ID No:35) | Hydrolysis of S^4-alkyl uridine derivatives ([5]; enzyme SEQ ID No:36) | Hydrolysis of S^4-alkyl uridine derivatives ([5]; enzyme SEQ ID No:37) | Hydrolysis of S^4-alkyl uridine derivatives ([5]; enzyme SEQ ID No:38) | also measured
1 | Nc1ccn([C@H]2C[C@H](O)[C@@H](CO)O2)c(=O)n1 [dC, 2'-deoxycytidine] | – | – | – | – | – | – | – | – | – | – | – | – | – | – | – | – | kcat ([1]; 310 nm (BzdC) or 290 nm (dC)): (24.4 ± 1.71) × 10 ^-1 s^-1; Vmax [1, 6]: (2.67 ± 0.19) × 10^-4; Km [1, 7]: 195 µM; kcat ([2]; 310 nm (BzdC) or 290 nm (dC)): (2.09 +/- 0.09) ×10^-1 s^-1; Vmax [2, 6]: (1.20 ± 0.05) × 10^-4; Km [2, 7]: 182 µM; kcat [3]: (2.58 ± 0.09) × 10^-2 s^-1; Vmax ([3]; unit not given): (6.70 ± 0.24) × 10^-5; kcat [4]: (6.87 ± 0.80) × 10 ^-1 s^-1; Vmax ([4]; unit not given): (4.35 ± 0.51) × 10^-4
2 | CCSc1nc(=O)n([C@@H]2O[C@H](CO)[C@@H](O)[C@H]2O)cc1F [5-F-4-S-ethyl-U] | + | + | + | + | + | + | + | + | + | + | + | + | + | + | + | + | –
3 | CC(C)CSc1ccn([C@@H]2O[C@H](CO)[C@@H](O)[C@H]2O)c(=O)n1 [4-S-iso-butyl-U] | + | – | + | + | – | – | – | – | – | – | – | – | – | – | – | – | –
4 | O=c1nc(SCc2ccccc2)ccn1[C@@H]1O[C@H](CO)[C@@H](O)[C@H]1O [4-S-benzyl-U] | + | + | + | + | – | + | + | – | + | + | – | + | + | – | – | + | Hydrolysis of S^4-alkyl uridine derivatives ([5]; enzyme SEQ ID No:10): +; Hydrolysis of S^4-alkyl uridine derivatives ([5]; enzyme SEQ ID No:13): +; Hydrolysis of S^4-alkyl uridine derivatives ([5]; enzyme SEQ ID No:14): +; Hydrolysis of S^4-alkyl uridine derivatives ([5]; enzyme SEQ ID No:21): +; Hydrolysis of S^4-alkyl uridine derivatives ([5]; enzyme SEQ ID No:39): +; Hydrolysis of S^4-alkyl uridine derivatives ([5]; enzyme SEQ ID No:41): +
5 | CCSc1ccn([C@@H]2O[C@H](CO)[C@@H](O)[C@H]2O)c(=O)n1 [4-S-ethyl-U] | + | + | + | + | + | + | + | + | + | + | + | + | + | + | + | + | Hydrolysis of S^4-alkyl uridine derivatives ([5]; enzyme SEQ ID No:21): +; Hydrolysis of S^4-alkyl uridine derivatives ([5]; enzyme SEQ ID No:26): +; Hydrolysis of S^4-alkyl uridine derivatives ([5]; enzyme SEQ ID No:29): +; Hydrolysis of S^4-alkyl uridine derivatives ([5]; enzyme SEQ ID No:31): +; Hydrolysis of S^4-alkyl uridine derivatives ([5]; enzyme SEQ ID No:33): +; Hydrolysis of S^4-alkyl uridine derivatives ([5]; enzyme SEQ ID No:39): +; Hydrolysis of S^4-alkyl uridine derivatives ([5]; enzyme SEQ ID No:40): +; Hydrolysis of S^4-alkyl uridine derivatives ([5]; enzyme SEQ ID No:41): +
6 | CSc1nc(=O)n([C@@H]2O[C@H](CO)[C@@H](O)[C@H]2O)cc1F [5-F-4-S-methyl-U] | + | + | + | + | + | + | + | + | + | + | + | + | + | + | + | + | Hydrolysis of S^4-alkyl uridine derivatives ([5]; enzyme SEQ ID No:26): +; Hydrolysis of S^4-alkyl uridine derivatives ([5]; enzyme SEQ ID No:29): +; Hydrolysis of S^4-alkyl uridine derivatives ([5]; enzyme SEQ ID No:33): +
7 | O=c1nc(SCc2ccccc2)c(F)cn1[C@@H]1O[C@H](CO)[C@@H](O)[C@H]1O [5-F-4-S-benzyl-U] | + | + | + | + | – | + | + | – | – | + | – | + | + | – | – | – | –
8 | CCCSc1ccn([C@@H]2O[C@H](CO)[C@@H](O)[C@H]2O)c(=O)n1 [4-S-n-propyl-U] | + | – | + | + | – | – | – | – | – | – | – | – | – | – | – | – | –
9 | O=c1nc(Sc2ccccc2)c(F)cn1[C@@H]1O[C@H](CO)[C@@H](O)[C@H]1O [5F-4-S-phenyl-U] | + | – | – | + | – | – | – | – | – | – | – | – | + | – | – | + | –
10 | CC(C)Sc1ccn([C@@H]2O[C@H](CO)[C@@H](O)[C@H]2O)c(=O)n1 [4-S-iso-propyl-U] | + | – | + | + | – | – | – | – | – | – | – | – | – | – | – | – | –
